Results: US9850283B2, “Macrocyclic inhibitors of the PD-1/PD-L1 and CD80(B7-1)/PD-L1 protein/protein interactions” (BRISTOL-MYERS SQUIBB COMPANY, priority 2013, dated 2017)
Like-named read-outs stand apart in the source and are kept apart here. Positions of bridges follow the written chain, without caps; N, C: chain ends. Non-standard residues stand in square brackets, D forms with d. Residues, ends and D or L forms follow the SMILES beside them. ξ: configuration not given here. Phe(4-Cl) = N[C@@H](Cc1ccc(Cl)cc1)C(=O)O; 2Nal = N[C@@H](Cc1ccc2ccccc2c1)C(=O)O; 3Thi = N[C@@H](Cc1ccsc1)C(=O)O; NMeNle = CCCC[C@H](NC)C(=O)O; NMeA = CN[C@@H](C)C(=O)O; ξNMeA = CNC(C)C(=O)O; ξP = O=C(O)C1CCCN1; ξC = NC(CS)C(=O)O; Sar = CNCC(=O)O

Assays:
Human PD-L1/PD-1 = target: T1, Human PD-L1/PD-1 (Homo sapiens, UniProt Q9NZQ7); experiment: HTRF PD-1-Ig/PD-L1-His binding assay (human PD-L1); conditions: read-out: HTRF Human PD-L1/PD-1 Binding Assay IC50
T1 construct: made in house; host or cells: HEK293T
T1 sequence (Q9NZQ7 with tags, fused parts or gaps): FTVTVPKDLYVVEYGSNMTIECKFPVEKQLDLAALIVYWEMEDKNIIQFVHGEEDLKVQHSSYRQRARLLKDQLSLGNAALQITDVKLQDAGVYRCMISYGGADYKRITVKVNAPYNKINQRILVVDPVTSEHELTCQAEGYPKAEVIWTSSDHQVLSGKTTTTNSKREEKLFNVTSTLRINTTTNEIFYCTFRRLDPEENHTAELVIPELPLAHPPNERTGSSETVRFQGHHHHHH
In short: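 Interaction of Fc-tagged soluble PD-1 with His-tagged soluble PD-L1 is monitored by time-resolved FRET. Donor is europium cryptate anti-Ig (1 nM final) and acceptor is APC anti-His (20 nM final). Assay buffer is dPBS with 0.1% BSA and 0.05% Tween-20.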

Hu PD-L1/PD-1 = Hu PD-L1/PD-1 (Homo sapiens, UniProt Q9NZQ7); experiment: Cell binding assay Hu PD-L1/PD-1 (Tables 11-13, cell line not given); format: cell-based
Chain of Hu PD-L1/PD-1 (Q9NZQ7 19-290): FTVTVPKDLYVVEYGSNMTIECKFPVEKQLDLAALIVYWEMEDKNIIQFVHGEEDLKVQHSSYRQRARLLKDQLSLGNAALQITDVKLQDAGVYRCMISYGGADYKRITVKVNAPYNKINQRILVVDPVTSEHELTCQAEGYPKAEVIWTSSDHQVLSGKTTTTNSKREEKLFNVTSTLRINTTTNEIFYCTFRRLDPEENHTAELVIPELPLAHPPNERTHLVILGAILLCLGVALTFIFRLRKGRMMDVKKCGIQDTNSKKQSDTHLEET
Method: The ability of the macrocyclic peptides of the present disclosure to bind to Jurkat, mouse B cell line (LK35.2), and a human lung adenocarcinoma cell line (L2987) was investigated. Jurkat-PD-1 Cell Binding Assay. Phycoerythrin (PE) was covalently linked to the Ig epitope tag of human PD-L1-Ig and fluorescently-labeled PD-L1-Ig was used for binding studies with a Jurkat cell line over-expressing human PD-1 (Jurkat-PD-1). […] Cells were washed 3× in dPBS. Cells were resuspended in 200 μl of dPBS and binding was measured by flow cytometry. LK35.2-hPD-L1 Cell Binding Assay. Phycoerythrin (PE) was covalently linked to the Ig eptitope tag of human PD-1-Ig and fluorescently-labeled PD-1-Ig was used for binding studies with a mouse B cell line (LK35.2) stably over-expressing human PD-L1 (LK35.2-hPD-L1). Briefly, […] LK35.2-hPD-L1 cells were pre-incubated with inhibitor for 15 m in a 30 μl volume of RPMI supplemented with 2% fetal calf serum. 20 μl of PE-labeled PD-1-Ig (2 nM final), diluted in RPMI supplemented with 2% fetal calf serum, was dispensed on top of cells and inhibitor and binding was allowed to take place for 1 h at room temperature. Cells were washed 3× in dPBS. Cells were resuspended in 200 μl of dPBS and binding was measured by flow cytometry. L2987 Cellomics Cell Binding Assay. Phycoerythrin (PE) was covalently linked to the Ig eptitope tag of human PD-1-Ig and fluorescently-labeled PD-1-Ig was used for binding studies with a human lung adenocarcinoma cell line (L2987) which naturally expresses PD-L1. […] The following day, inhibitors were diluted in serum-free DMEM and 25 μl was dispensed on top of cells. […] Samples were incubated for 1 h at 37° C. followed by 2 washes in dPBS and fixation for 30 m with 4% paraformaldehyde. Samples were further washed 2× in dPBS. Hoechst (final 1 μg/ml) was added to final wash to stain nuclei. Plates were processed using a Cellomics […]®.

[1] = Table 8, Compound No. 1 variant macrocyclic peptides
[2] = Table 9, Compound No. 71 variant macrocyclic peptides
[3] = Table 13, Compound No. 71 series

IC50 (Human PD-L1/PD-1; [1]) | IC50 (Hu PD-L1/PD-1) | IC50 (Human PD-L1/PD-1; [2]) | IC50 (Hu PD-L1/PD-1; [3]) | Compound
9 nM | 20 nM | – | – | CCCC[C@H]1C(=O)N(C)[C@@H](CCCC)C(=O)N[C@@H](CCCNC(=N)N)C(=O)NC(C(=O)NCC(N)=O)CSCC(=O)N[C@@H](Cc2ccsc2)C(=O)N(C)[C@@H](C)C(=O)N[C@@H](CC(N)=O)C(=O)N2CCC[C@H]2C(=O)N[C@@H](Cc2cnc[nH]2)C(=O)N[C@@H](CC(C)C)C(=O)N(C)CC(=O)N[C@@H](Cc2c[nH]c3ccccc23)C(=O)N[C@@H](CO)C(=O)N[C@@H](Cc2c[nH]c3ccccc23)C(=O)N1C (stereo partly drawn) [Compound No. 40] ({CH2CO}-[3Thi][NMeA]NPHL[Sar]WSW[NMeNle][NMeNle]R[ξC]G-NH2; thioether N-14)
8980 nM | > 10000 nM | – | – | CCCC[C@H]1C(=O)N(C)[C@@H](CCCC)C(=O)N[C@@H](CCCNC(=N)N)C(=O)N[C@H](C(=O)NCC(N)=O)CSCC(=O)N[C@@H](Cc2ccccc2)C(=O)N(C)[C@@H](C)C(=O)N[C@@H](CC(N)=O)C(=O)N2CCC[C@H]2C(=O)N[C@@H](Cc2cnc[nH]2)C(=O)N[C@@H](CC(C)C)C(=O)N(C)CC(=O)N[C@@H](Cc2c[nH]c3ccccc23)C(=O)N[C@H](CC(N)=O)C(=O)N[C@@H](Cc2c[nH]c3ccccc23)C(=O)N1C [Compound No. 58] ({CH2CO}-F[NMeA]NPHL[Sar]W[dN]W[NMeNle][NMeNle]RCG-NH2; thioether N-14)
24 nM | 108 nM | – | – | CCCC[C@H]1C(=O)N(C)[C@@H](CCCC)C(=O)N[C@@H](CCCNC(=N)N)C(=O)N[C@H](C(=O)NCC(N)=O)CSCC(=O)N[C@@H](Cc2ccccc2)C(=O)N(C)[C@@H](C)C(=O)N[C@@H](CC(N)=O)C(=O)N2CCC[C@H]2C(=O)N[C@@H](Cc2c[nH]cn2)C(=O)N[C@@H](CC(C)C)C(=O)N[C@@H](CCN)C(=O)N[C@@H](Cc2c[nH]c3ccccc23)C(=O)N[C@@H](CO)C(=O)N[C@@H](Cc2c[nH]c3ccccc23)C(=O)N1C [Compound No. 52]
15 nM | 13 nM | – | – | CCCC[C@H]1C(=O)N(C)[C@@H](CCCC)C(=O)N[C@@H](CCCNC(=N)N)C(=O)N[C@@H](C(=O)NCC(N)=O)CSCC(=O)N[C@@H](Cc2ccc3ccccc3c2)C(=O)N(C)[C@@H](C)C(=O)N[C@@H](CC(N)=O)C(=O)N2CCC[C@H]2C(=O)N[C@@H](Cc2cnc[nH]2)C(=O)N[C@@H](CC(C)C)C(=O)N(C)CC(=O)N[C@@H](Cc2c[nH]c3ccccc23)C(=O)N[C@@H](CO)C(=O)N[C@@H](Cc2c[nH]c3ccccc23)C(=O)N1C [Compound No. 26] ({CH2CO}-[2Nal][NMeA]NPHL[Sar]WSW[NMeNle][NMeNle]R[dC]G-NH2; thioether N-14)
3 nM | 28 nM | – | – | CCCC[C@H]1C(=O)N(C)[C@@H](CCCC)C(=O)N[C@@H](C)C(=O)N[C@H](C(=O)NCC(N)=O)CSCC(=O)N[C@@H](Cc2ccccc2)C(=O)N(C)[C@@H](C)C(=O)N[C@@H](CC(N)=O)C(=O)N2CCCC2C(=O)N[C@@H](Cc2cnc[nH]2)C(=O)N[C@@H](CC(C)C)C(=O)N(C)CC(=O)N[C@@H](Cc2c[nH]c3ccccc23)C(=O)N[C@@H](CO)C(=O)N[C@@H](Cc2c[nH]c3ccccc23)C(=O)N1C (stereo partly drawn) [Compound No. 22]
5 nM | 13 nM | – | – | CCCC[C@H]1C(=O)N(C)[C@@H](CCCC)C(=O)N[C@@H](CCCNC(=N)N)C(=O)N[C@H](C(=O)NCC(N)=O)CSCC(=O)N[C@@H](Cc2ccccc2)C(=O)N(C)[C@@H](C)C(=O)N[C@@H](CC(N)=O)C(=O)N2CCCC2C(=O)N[C@@H](Cc2cnc[nH]2)C(=O)N[C@@H](CC(C)C)C(=O)N(C)CC(=O)N[C@@H](Cc2c[nH]c3ccccc23)C(=O)N[C@@H](C)C(=O)N[C@@H](Cc2c[nH]c3ccccc23)C(=O)N1C (stereo partly drawn) [Compound No. 16] ({CH2CO}-F[NMeA]N[ξP]HL[Sar]WAW[NMeNle][NMeNle]RCG-NH2; thioether N-14)
9 nM | 7 nM | – | – | CCCC[C@H]1C(=O)N(C)[C@@H](CCCC)C(=O)N[C@@H](CCCNC(=N)N)C(=O)N[C@H](C(=O)NCC(N)=O)CSCC(=O)N[C@@H](Cc2ccc(Cl)cc2)C(=O)N(C)[C@@H](C)C(=O)N[C@@H](CC(N)=O)C(=O)N2CCC[C@H]2C(=O)N[C@@H](Cc2cnc[nH]2)C(=O)N[C@@H](CC(C)C)C(=O)N(C)CC(=O)N[C@@H](Cc2c[nH]c3ccccc23)C(=O)N[C@@H](CO)C(=O)N[C@@H](Cc2c[nH]c3ccccc23)C(=O)N1C [Compound No. 33] ({CH2CO}-[Phe(4-Cl)][NMeA]NPHL[Sar]WSW[NMeNle][NMeNle]RCG-NH2; thioether N-14)
– | – | > 10000 nM | > 10000 nM | CCCC[C@@H]1NC(=O)[C@H](Cc2ccccc2)N(C)C(=O)[C@H](Cc2ccccc2)NC(=O)CSC[C@@H](C(=O)NCC(N)=O)NC(=O)[C@H](CC(C)C)NC(=O)[C@H](Cc2ccc(O)cc2)NC(=O)[C@H](Cc2c[nH]c3ccccc23)NC(=O)CN(C)C(=O)[C@H](Cc2ccc(O)cc2)NC(=O)[C@H](Cc2ccccc2)N(C)C(=O)[C@H](C(C)C)NC(=O)[C@H](CC(=O)O)NC(=O)CN(C)C1=O [Compound No. 76] (HELM PEPTIDE1{[O=C(C[*:3])[*:2]].F.[meF].[Nle].[Sar].D.V.[meF].Y.[Sar].W.Y.L.C.G.[am]}$PEPTIDE1,PEPTIDE1,1:R3-14:R3$$$V2.0)
16 nM | 82 nM | – | – | CCCC[C@H]1C(=O)N(C)[C@@H](CCCC)C(=O)N[C@@H](CCCNC(=N)N)C(=O)N[C@H](C(=O)NCC(N)=O)CSCC(=O)N[C@@H](Cc2ccccc2)C(=O)N(C)[C@@H](C)C(=O)N[C@@H](CC(N)=O)C(=O)N2CCCC2C(=O)N[C@@H](C)C(=O)N[C@@H](CC(C)C)C(=O)N(C)CC(=O)N[C@@H](Cc2c[nH]c3ccccc23)C(=O)N[C@@H](CO)C(=O)N[C@@H](Cc2c[nH]c3ccccc23)C(=O)N1C (stereo partly drawn) [Compound No. 10] ({CH2CO}-F[NMeA]N[ξP]AL[Sar]WSW[NMeNle][NMeNle]RCG-NH2; thioether N-14)
– | – | 24 nM | 16 nM | CCCC[C@H]1C(=O)N(C)[C@@H](C)C(=O)N[C@@H](CC(=O)O)C(=O)N[C@@H](C(C)C)C(=O)N(C)[C@@H](Cc2ccccc2)C(=O)N[C@@H](Cc2ccc(O)cc2)C(=O)N(C)CC(=O)N[C@@H](Cc2c[nH]c3ccccc23)C(=O)N[C@@H](Cc2ccc(O)cc2)C(=O)N[C@@H](CC(C)C)C(=O)N[C@H](C(=O)NCC(N)=O)CSCC(=O)N[C@@H](Cc2ccccc2)C(=O)N(C)[C@@H](Cc2ccccc2)C(=O)N1C [Compound No. 77] (HELM PEPTIDE1{[O=C(C[*:3])[*:2]].F.[meF].[CCCC[C@@H](C(=O)[*:2])N(C)[*:1]].[meA].D.V.[meF].Y.[Sar].W.Y.L.C.G.[am]}$PEPTIDE1,PEPTIDE1,1:R3-14:R3$$$V2.0)
34 nM | 47 nM | – | – | CCCC[C@H]1C(=O)N(C)[C@@H](CCCC)C(=O)N[C@@H](CCCNC(=N)N)C(=O)N[C@H](C(=O)NCC(N)=O)CSCC(=O)N[C@@H](Cc2ccccc2)C(=O)N(C)C(C)C(=O)N[C@@H](CC(N)=O)C(=O)N2CCC[C@H]2C(=O)N[C@@H](Cc2cnc[nH]2)C(=O)N[C@@H](CC(C)C)C(=O)N[C@@H](Cc2cnc[nH]2)C(=O)N[C@@H](Cc2c[nH]c3ccccc23)C(=O)N[C@@H](CO)C(=O)N[C@@H](Cc2c[nH]c3ccccc23)C(=O)N1C (stereo partly drawn) [Compound No. 53] ({CH2CO}-F[ξNMeA]NPHLHWSW[NMeNle][NMeNle]RCG-NH2; thioether N-14)
16 nM | 35 nM | – | – | CCCC[C@H]1C(=O)N(C)[C@@H](CCCC)C(=O)N[C@@H](CCCNC(=N)N)C(=O)N[C@H](C(=O)NCC(N)=O)CSCC(=O)N[C@@H](Cc2ccccc2)C(=O)N(C)[C@@H](C)C(=O)N[C@@H](CC(N)=O)C(=O)N2CCCC2C(=O)N[C@@H](Cc2cnc[nH]2)C(=O)N[C@@H](CC(C)C)C(=O)N(C)[C@@H](C)C(=O)N[C@@H](Cc2c[nH]c3ccccc23)C(=O)N[C@@H](CO)C(=O)N[C@@H](Cc2c[nH]c3ccccc23)C(=O)N1C (stereo partly drawn) [Compound No. 13] ({CH2CO}-F[NMeA]N[ξP]HL[NMeA]WSW[NMeNle][NMeNle]RCG-NH2; thioether N-14)
